Results: patent publication US20080113063A1, “MICRONUTRIENT SUPPLEMENT” (priority 2006, published 2008)

Tests used:
[1] = Soluble copper versus pH on titration of TBCC mother liquor with NH4OH; assay type: physicochemical; conditions: pH about 5.6, room temperature, ammonium chloride mother liquor
Protocol: The starting material used for this example was mother liquor remaining after the production of tribasic copper chloride (TBCC) from spent circuit board chemical etchants. The particular sample of mother liquor was slightly acidic, contained several hundred grams per liter of ammonium chloride and about 12 g/L of dissolved copper. The series of tests were conducted at room temperature. A 400 mL sample was titrated with NH4OH solution having a specific gravity of 0.93 and containing about 16% NH3 by weight. The pH and soluble copper concentrations were measured after each increment of NH4OH solution added. The results are illustrated in FIG. 4. Precipitation of copper initiated at a pH of about 4.1 and continued until the pH reached about 5.5. It was apparent that the copper amine chloride salt was forming at least within the pH range of 4.5 to 5.6. As expected from the stoichiometry of Equation 3, about 1 mole of copper was precipitated for every 2 moles of ammonia added. For this particular series of tests, the minimum solubility of copper was about 1,000 mg/L at a pH of about 5.6. As more ammonium hydroxide was added to raise the pH above 5.6, the copper amine chloride salt dissolved to form a navy blue soluble copper tetrammine complex. At a pH above about 7.2 virtually all of the copper ammine chloride salt had dissolved. […]

[2] = test system: male avian broiler chicks; assay: Bioavailability of zinc in chicks fed a zinc-free basal corn-soybean diet plus zinc source, 20-day experiment; assay type: in vivo
Protocol: An experiment was conducted to compare the bioavailability of zinc from zinc diammine chloride (ZDC or Zn(NH3)2Cl2) with that of reagent grade zinc sulfate heptahydrate (ZSH or ZnSO4.7H2O). A zinc-free basal corn-soybean diet was formulated. The zinc sources were added to the basal diet at doses of 4 mg Zn per kg and 8 mg Zn per kg. The basal and experimental diets were mixed using a horizontal mixer for basal diet and a Hobart mixer for individual treatments. All diets were fed as a mash feed. Eighty male avian broiler chicks were used in the 20-day experiment. The test birds were randomly divided into 20 pens of 4 birds each. The birds were housed in thermostatically controlled, stainless steel battery cages with raised wire flooring in an environmentally controlled facility. Environmental conditions for the birds (i.e., floor space, temperature, lighting, feeder and water space) were similar for all test groups. The chicks were pretested for the first three days after hatching; and then they were switched to the basal diet until the start of the study at day eight. Water that had been deionized and distilled and feed was available for ad libitum consumption.
All feed added to the pens was recorded. Feed was weighed back at the conclusion of the trial and the feed intake was calculated. The ratio of weight gain to feed consumed was calculated for the period using the average weight gain of birds per treatment divided by the average feed consumption for the treatment throughout the test period.

Compound | minimum solubility of copper [1] | improvement of overall weight gain compared to the control ([2]; 4 mg Zn per kg feed) | improvement of weight gain per unit of feed compared to the control ([2]; 4 mg Zn per kg feed) | improvement of overall weight gain compared to the control ([2]; 8 mg Zn per kg feed) | improvement of weight gain per unit of feed compared to the control ([2]; 8 mg Zn per kg feed) | Feed Intake ([2]; Zn 4 mg/kg added to basal diet) | Gain:Feed ([2]; Zn 4 mg/kg added to basal diet) | Weight Gain ([2]; Zn 4 mg/kg added to basal diet) | Feed Intake ([2]; Zn 8 mg/kg added to basal diet) | Gain:Feed ([2]; Zn 8 mg/kg added to basal diet) | Weight Gain ([2]; Zn 8 mg/kg added to basal diet)
N.N.[Cl][Cu][Cl] [CDC, copper diammine chloride] | about 1,000 mg/L |  |  |  |  |  |  |  |  |  | 
N.N.[Cl][Zn][Cl] [ZDC, zinc diammine chloride] |  | about 37% | about 24% | ~75% | ~28% | 189.8 g/chick | 523 g/kg | 99.3 g/chick | 235.3 g/chick | 538 g/kg | 126.5 g/chick
O.O.O.O.O.O.O.O=S(=O)([O-])[O-].[Zn+2] [ZnSO4•7H2O, zinc sulfate heptahydrate, reference compound] |  |  |  |  |  | 201.8 g/chick | 497 g/kg | 100.5 g/chick | 233.5 g/chick | 514 g/kg | 119.8 g/chick
